Experiments:
Assay type in all cases: in vivo
[1] = test system: morningglory (Ipomoea coccinea); assay: Test C postemergence; details: Ipomoea, post-emergence, 336 h, Postemergence, scale 0 to 100, read-out: Plant response rating, Morningglory
Outline: (§1)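 Visual ratings (0 none to 100 complete control) were made 13 to 15 days after treatment, relative to controls. Test chemicals, formulated in a non-phytotoxic solvent mixture with surfactant, were applied in the greenhouse preemergence to seeded loam-sand soil or postemergence to plants 2 to 18 cm tall.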

[2] = test system: giant foxtail (Setaria faberii); assay: Test C postemergence; details: Setaria faberi, post-emergence, 336 h, Postemergence, scale 0 to 100, read-out: Plant response rating, Foxtail, Giant
Outline: as §1

[3] = test system: galium (catchweed bedstraw, Galium aparine); assay: Test C postemergence; details: Galium, post-emergence, 336 h, Postemergence, scale 0 to 100, read-out: Plant response rating, Galium
Outline: as §1

[4] = test system: barnyardgrass (Echinochloa crus-galli); assay: Test B flooded paddy; details: Echinochloa crus-galli, 336 h; 250 g ai/ha, Flood, 13 to 15 days, scale 0 (no effect) to 100 (complete control); read-out: Plant response rating, Barnyardgrass
Outline: (§2)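 Greenhouse pots flooded to 3 cm above soil at time of treatment received compound via the water, which stayed at that level.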

rice (Oryza sativa) = assay: Test B flooded paddy; details: Oryza sativa, 336 h; 250 g ai/ha, Flood, 13 to 15 days, scale 0 (no effect) to 100 (complete control); read-out: Plant response rating, Rice
Outline: as §2

[5] = test system: ducksalad (Heteranthera limosa); assay: Test B flooded paddy; details: Heteranthera limosa, 336 h; 250 g ai/ha, Flood, 13 to 15 days, scale 0 (no effect) to 100 (complete control); read-out: Plant response rating, Ducksalad
Outline: as §2

[6] = test system: sedge, umbrella (small-flower umbrella sedge, Cyperus difformis); assay: Test B flooded paddy; details: Cyperus difformis, 336 h; 250 g ai/ha, Flood, 13 to 15 days, scale 0 (no effect) to 100 (complete control); read-out: Plant response rating, Sedge, Umbrella
Outline: as §2

[7] = test system: giant foxtail (Setaria faberii); assay: Test A postemergence; details: Setaria faberi, post-emergence, 240 h, 0 to 100 scale, read-out: Plant response rating, Foxtail, Giant
Outline: (§3)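 Visual injury scored 0–100 (100 = complete control) against untreated controls about 10 days after treatment in a greenhouse. Test chemicals, formulated with surfactant in non-phytotoxic solvent, were sprayed on soil preemergence or on 2-10 cm, one- to two-leaf plants postemergence.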

[8] = test system: barnyardgrass (Echinochloa crus-galli); assay: Test A postemergence; details: Echinochloa crus-galli, post-emergence, 240 h, 0 to 100 scale, read-out: Plant response rating, Barnyardgrass
Outline: as §3

[9] = test system: blackgrass (Alopecurus myosuroides); assay: Test A postemergence; details: Alopecurus myosuroides, post-emergence, 240 h, 0 to 100 scale, read-out: Plant response rating, Blackgrass
Outline: as §3

[10] = test system: galium (catchweed bedstraw, Galium aparine); assay: Test A postemergence; details: Galium, post-emergence, 240 h, 0 to 100 scale, read-out: Plant response rating, Galium
Outline: as §3

[11] = test system: Italian ryegrass (Lolium multiflorum); assay: Test A postemergence; details: Lolium multiflorum, post-emergence, 240 h, 0 to 100 scale, read-out: Plant response rating, Ryegrass, Italian
Outline: as §3

corn (Zea mays) = assay: Test A postemergence; details: Zea mays, post-emergence, 240 h, 0 to 100 scale
Outline: as §3

[12] = test system: ragweed (common ragweed, Ambrosia elatior); assay: Test A postemergence; details: Ambrosia artemisiifolia, post-emergence, 240 h, 0 to 100 scale, read-out: Plant response rating, Ragweed
Outline: as §3

kochia (Kochia scoparia) [13] = assay: Test A postemergence; details: Bassia scoparia, post-emergence, 240 h, 0 to 100 scale, read-out: Plant response rating, Kochia
Outline: as §3

[14] = test system: wheat (Triticum aestivum); assay: Test A postemergence; details: Triticum aestivum, post-emergence, 240 h, 0 to 100 scale, read-out: Plant response rating, Wheat
Outline: as §3

[15] = test system: pigweed (Amaranthus retroflexus); assay: Test A postemergence; details: Amaranthus retroflexus, post-emergence, 240 h, 0 to 100 scale, read-out: Plant response rating, Pigweed
Outline: as §3

[16] = test system: giant foxtail (Setaria faberii); assay: Test A preemergence; details: Setaria faberi, pre-emergence, 240 h, 0 to 100 scale (0 no effect, 100 complete control), read-out: Foxtail, Giant plant response rating
Outline: as §3

[17] = test system: barnyardgrass (Echinochloa crus-galli); assay: Test A preemergence; details: Echinochloa crus-galli, pre-emergence, 240 h
Outline: as §3

[18] = test system: Italian ryegrass (Lolium multiflorum); assay: Test A preemergence; details: Lolium multiflorum, pre-emergence, 240 h, 0 to 100 scale (0 no effect, 100 complete control), read-out: Ryegrass, Italian plant response rating
Outline: as §3

[19] = test system: ragweed (common ragweed, Ambrosia elatior); assay: Test A preemergence; details: Ambrosia artemisiifolia, pre-emergence, 240 h, 0 to 100 scale (0 no effect, 100 complete control), read-out: Ragweed plant response rating
Outline: as §3

kochia (Kochia scoparia) [20] = assay: Test A preemergence; details: Bassia scoparia, pre-emergence, 240 h, 0 to 100 scale (0 no effect, 100 complete control), read-out: Kochia plant response rating
Outline: as §3

[21] = test system: pigweed (Amaranthus retroflexus); assay: Test A preemergence; details: Amaranthus retroflexus, pre-emergence, 240 h, 0 to 100 scale (0 no effect, 100 complete control), read-out: Pigweed plant response rating
Outline: as §3

N#Cc1cccc(Oc2ncc(Cl)cn2)c1Oc1cnc(Cl)cn1 [Compound 32, 2-[(5-chloro-2-pyrazinyl)oxy]-3-[(5-chloro-2-pyrimidinyl)oxy]benzonitrile] gave a pest or weed control at 31 g/ha ([1]; 31 g ai/ha) of 90%, a pest or weed control at 62 g/ha ([1]; 62 g ai/ha) of 95% and a pest or weed control at 125 g/ha ([1]; 125 g ai/ha) of 95%. For the same compound, the pest or weed control at 16 g/ha ([2]; 16 g ai/ha) was 20%, the pest or weed control at 31 g/ha ([2]; 31 g ai/ha) was 20% and the pest or weed control at 62 g/ha ([2]; 62 g ai/ha) was 15%. The pest or weed control at 125 g/ha ([2]; 125 g ai/ha) was 20%, the pest or weed control at 16 g/ha ([3]; 16 g ai/ha) was 80% and the pest or weed control at 31 g/ha ([3]; 31 g ai/ha) was 80%. The pest or weed control at 62 g/ha ([3]; 62 g ai/ha) was 95%, the pest or weed control at 125 g/ha ([3]; 125 g ai/ha) was 95% and the pest or weed control at 250 g/ha [4] was 70%. For the same compound, the plant injury at 250 g/ha (rice (Oryza sativa)) was 40%, the pest or weed control at 250 g/ha [5] was 75% and the pest or weed control at 250 g/ha [6] was 90%. For the same compound, the pest or weed control at 31 g/ha ([7]; 31 g ai/ha) was 50%, the pest or weed control at 125 g/ha ([7]; 125 g ai/ha) was 90% and the pest or weed control at 31 g/ha ([8]; 31 g ai/ha) was 40%. It also gave a pest or weed control at 125 g/ha ([8]; 125 g ai/ha) of 100%, a pest or weed control at 31 g/ha ([9]; 31 g ai/ha) of 60% and a pest or weed control at 125 g/ha ([9]; 125 g ai/ha) of 70%. For the same compound, the pest or weed control at 31 g/ha ([10]; 31 g ai/ha) was 90%, the pest or weed control at 125 g/ha ([10]; 125 g ai/ha) was 90% and the pest or weed control at 31 g/ha ([11]; 31 g ai/ha) was 10%. For the same compound, the pest or weed control at 125 g/ha ([11]; 125 g ai/ha) was 50%, the Corn plant response rating (crop injury, 0 = no effect, 100 = complete kill) at 31 g/ha (corn (Zea mays); 31 g ai/ha) was 30% and the Corn plant response rating (crop injury, 0 = no effect, 100 = complete kill) at 125 g/ha (corn (Zea mays); 125 g ai/ha) was 50%. For the same compound, the pest or weed control at 31 g/ha ([12]; 31 g ai/ha) was 10%, the pest or weed control at 125 g/ha ([12]; 125 g ai/ha) was 30% and the pest or weed control at 31 g/ha (kochia (Kochia scoparia) [13]; 31 g ai/ha) was 90%. For the same compound, the pest or weed control at 125 g/ha (kochia (Kochia scoparia) [13]; 125 g ai/ha) was 90%, the plant injury at 31 g/ha ([14]; 31 g ai/ha) was 0% and the plant injury at 125 g/ha ([14]; 125 g ai/ha) was 30%. It also gave a pest or weed control at 31 g/ha ([15]; 31 g ai/ha) of 100%, a pest or weed control at 125 g/ha ([15]; 125 g ai/ha) of 100% and a pest or weed control at 31 g/ha ([16]; 31 g ai/ha) of 100%. It also gave a pest or weed control at 125 g/ha ([16]; 125 g ai/ha) of 100%, a pest or weed control at 31 g/ha ([17]; 31 g ai/ha, 0 to 100 scale (0 no effect, 100 complete control), read-out: Barnyardgrass plant response rating) of 30% and a pest or weed control at 125 g/ha ([17]; 125 g ai/ha, 0 to 100 scale, read-out: Plant response rating, Barnyardgrass) of 90%. The pest or weed control at 31 g/ha ([18]; 31 g ai/ha) was 10%, the pest or weed control at 125 g/ha ([18]; 125 g ai/ha) was 60% and the pest or weed control at 31 g/ha ([19]; 31 g ai/ha) was 0%. For the same compound, the pest or weed control at 125 g/ha ([19]; 125 g ai/ha) was 30%, the pest or weed control at 31 g/ha (kochia (Kochia scoparia) [20]; 31 g ai/ha) was 100% and the pest or weed control at 125 g/ha (kochia (Kochia scoparia) [20]; 125 g ai/ha) was 100%. It also gave a pest or weed control at 31 g/ha ([21]; 31 g ai/ha) of 100% and a pest or weed control at 125 g/ha ([21]; 125 g ai/ha) of 100%.

Reference: patent US20170190671A1, “BIS(ARYL)CATECHOL DERIVATIVES AS HERBICIDES” (E I DU PONT DE NEMOURS AND COMPANY, priority 2014, published 2017)
